According to patent EP4635949A1 (Jiangsu NHWA Pharmaceutical Co., Ltd, priority 2022, dated 2024):
Read-outs that look alike come from different tables or passages of the source.

Tests used:
[1] = target: T1, OX1 receptor (Homo sapiens, UniProt O43613); test: Orexin target function test (Cisbio HTRF IP-one), CHO-K1-OX1 cells, antagonism of EC80 Orexin A; type: cell-based
T1 construct: host or cells: CHO-K1
T1 sequence (O43613 1-425): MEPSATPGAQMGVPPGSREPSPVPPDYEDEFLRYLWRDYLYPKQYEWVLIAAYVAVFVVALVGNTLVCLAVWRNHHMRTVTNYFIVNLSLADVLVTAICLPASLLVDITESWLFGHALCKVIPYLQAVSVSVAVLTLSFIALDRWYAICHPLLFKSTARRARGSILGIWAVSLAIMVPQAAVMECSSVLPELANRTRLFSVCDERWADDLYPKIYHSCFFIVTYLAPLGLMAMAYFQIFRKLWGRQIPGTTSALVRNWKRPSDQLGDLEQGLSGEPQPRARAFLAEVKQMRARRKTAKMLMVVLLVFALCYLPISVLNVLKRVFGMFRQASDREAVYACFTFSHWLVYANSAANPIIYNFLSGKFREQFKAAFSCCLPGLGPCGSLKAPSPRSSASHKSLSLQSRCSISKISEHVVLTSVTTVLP
Experimental: (§1) Using Cisbio HTRF IP-one kit to detect the changes in IP-one concentration of orexin receptor (OX1/OX2) signaling pathway by microplate reader, and calculating the IC50 value of the compound to evaluate the antagonistic effect of the compound on OX1 and OX2 receptors.
(§2) The cells were centrifuged at 1000 rpm for 5 minutes and the supernatant was discarded. 3 mL of PBS was added, and gently blown with a pipette to mix. After centrifugation at 1000 rpm for 5 minutes again, the supernatant was discarded. […] Based on the antagonistic effect values of the compound samples at different concentrations, the GraphPad Prism software was used to fit the orexin receptor antagonism curve of the compound samples and calculate the IC50.

[2] = target: T2, OX2 receptor (Homo sapiens, UniProt O43614); test: Orexin target function test (Cisbio HTRF IP-one), CHO-K1-OX2 cells, antagonism of EC80 Orexin 2 receptor agonist; type: cell-based
T2 construct: host or cells: CHO-K1
T2 sequence (O43614 1-444): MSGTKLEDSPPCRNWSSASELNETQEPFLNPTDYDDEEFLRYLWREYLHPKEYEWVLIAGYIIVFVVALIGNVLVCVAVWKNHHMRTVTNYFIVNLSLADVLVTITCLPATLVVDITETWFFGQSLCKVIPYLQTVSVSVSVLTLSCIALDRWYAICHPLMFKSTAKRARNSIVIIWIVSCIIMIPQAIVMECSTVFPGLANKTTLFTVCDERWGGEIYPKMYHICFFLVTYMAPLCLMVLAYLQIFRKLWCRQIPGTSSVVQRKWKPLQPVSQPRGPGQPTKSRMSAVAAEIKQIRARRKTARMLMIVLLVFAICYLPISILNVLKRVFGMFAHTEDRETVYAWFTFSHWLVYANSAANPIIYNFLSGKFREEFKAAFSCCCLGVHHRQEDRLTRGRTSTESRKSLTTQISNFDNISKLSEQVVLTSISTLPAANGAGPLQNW
Experimental: as §1, §2

[3] = Blood-brain barrier permeability of the test substance in rats; settings: male, SD, rat, oral, 30 mg/kg; for Kp at 0.25 h: brain/plasma
Experimental: (§3) Twelve male SD rats were randomly divided into 4 groups, with 3 rats in each group. They were fasted for 8 hours before the test and had free access to water. The rats were intragastrically administered with 30 mg/kg of the test substance solution, and 0.3 mL of blood was collected from the jugular venous plexus of the rats before and 0.25 hours after administration. The rats were then anesthetized, the chest cavity was opened, the right atrial appendage was cut, and the blood was rapidly perfused from the back of the left ventricle. When the outflowing liquid was transparent and bloodless, the perfusion could be stopped, and the brain tissue was removed, dried with filter paper, weighed, and homogenized with an appropriate amount of physiological saline (1:4, v/v) to prepare a brain tissue homogenate. The whole blood sample was centrifuged at 4000 r/min for 10 min to separate the plasma.
(§4) The established LC-MS/MS method is used to detect the concentration of the test substance in plasma and brain tissue homogenate. The brain-to-blood ratio (Kb/p) of the test substance can be obtained by dividing the drug concentration in brain tissue by the drug concentration in plasma.

[4] = in vivo; settings: male, SD, rat, plasma
[5] = male, SD, rat, in vivo, 30 mg/kg
Experimental: as §3, §4

[6] = in vivo; settings: male, SD, rat, 30 mg/kg
Experimental: as §3, §4

[7] = CHO-K1-OX1 cells, IP-one, read-out: hOXIR IC50
[8] = CHO-K1-OX2 cells, IP-one, read-out: hOX2R IC50

## COc1ncc(C)nc1C1=CC2CN(C(=O)c3c(F)cccc3-n3nccn3)CC2C1 (centres unmarked) [Compound 39, (2-fluoro-6-(2H-1,2,3-triazol-2-yl)phenyl)(5-(3-methoxy-6-methylpyrazin-2-yl)-3,3a,4,6a-tetrahydrocyclopenta[c]pyrrol-2(1H)-yl)methanone]
[1]; [7]
  IC50: 1200 nM
[2]
  Selectivity: 60
[2]; [8]
  IC50: 20 nM
[3]; brain
  concentration at 0.25 h: 285 ng/g
[3]
  Kp at 0.25 h: 0.28
[3]; plasma
  concentration at 0.25 h: 1020 ng/mL

## COc1ccc(C(=O)N2CC3C=C(c4nc(C)cnc4OC)CC3C2)c(-n2nccn2)c1 (centres unmarked) [Compound 41, (4-methoxy-2-(2H-1,2,3-triazol-2-yl)phenyl)(5-(3-methoxy-6-methylpyrazin-2-yl)-3,3a,4,6a-tetrahydrocyclopenta[c]pyrrol-2(1H)-yl)methanone]
[1]; [7]
  IC50: 1650 nM
[2]
  Selectivity: 87
[2]; [8]
  IC50: 19 nM
[4]; iv, 1 mg/kg
  AUC(0-t): 389 ng·h/mL
  Cmax: 706 ng/mL
[4]; po, 30 mg/kg
  AUC(0-t): 5600 ng·h/mL
  Cmax: 3980 ng/mL
  bioavailability: 48%
[3]; brain
  concentration at 0.25 h: 990 ng/g
[3]
  Kp at 0.25 h: 0.39
[3]; plasma
  concentration at 0.25 h: 2570 ng/mL

## COc1cc(C(=O)N2CC3C=C(c4nc(C)cnc4OC)CC3C2)c(-n2nccn2)cn1 (centres unmarked) [Compound 42, (2-methoxy-5-(2H-1,2,3-triazol-2-yl)pyridin-4-yl)(5-(3-methoxy-6-methylpyrazin-2-yl)-3,3a,4,6a-tetrahydrocyclopenta[c]pyrrol-2(1H)-yl)methanone]
[1]; [7]
  IC50: 1300 nM
[2]
  Selectivity: 54
[2]; [8]
  IC50: 24 nM
[3]; brain
  concentration at 0.25 h: 193 ng/g
[3]
  Kp at 0.25 h: 0.52
[3]; plasma
  concentration at 0.25 h: 372 ng/mL

## COc1ncc(C)nc1C1=CC2CN(C(=O)c3ccc(F)cc3-n3nccn3)CC2C1 (centres unmarked) [Compound 44, [4-fluoro-2-(2H-1,2,3-triazol-2-yl)phenyl][5-(3-methoxy-6-methylpyrazin-2-yl)-3,3a,4,6a-tetrahydrocyclopenta[c]pyrrol-2(1H)-yl]methanone]
[1]
  IC50: 2400 nM
[2]
  IC50: 18 nM
  Selectivity: 133
[5]
  Brain: 231.3 ng/g
  Plasma: 235.6 ng/mL
[6]
  Kp: 0.98
